The source made the active and inactive calls.
Legend:
CAAX prenyl protease 2 [1] = target: T1, CAAX prenyl protease 2 (Saccharomyces cerevisiae S288c, UniProt Q03530); type: biochemical
T1 sequence (Q03530 whole entry): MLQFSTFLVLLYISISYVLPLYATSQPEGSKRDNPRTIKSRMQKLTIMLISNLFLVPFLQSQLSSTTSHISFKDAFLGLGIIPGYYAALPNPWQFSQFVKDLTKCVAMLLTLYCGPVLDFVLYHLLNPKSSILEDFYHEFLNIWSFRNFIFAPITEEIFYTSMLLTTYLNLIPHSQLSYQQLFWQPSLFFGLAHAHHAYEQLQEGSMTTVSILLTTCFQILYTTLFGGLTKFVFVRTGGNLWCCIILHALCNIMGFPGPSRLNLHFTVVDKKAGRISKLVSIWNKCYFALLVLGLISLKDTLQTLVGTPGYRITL

CAAX prenyl protease 2 [2] = target: T2, CAAX prenyl protease 2 (Homo sapiens, UniProt Q9Y256); experiment: human Rce1 protease inhibitors, dose response, biochemical, yeast membranes, quenched-peptide fluorescence, cherry-pick (AID 588849)
T2 sequence (Q9Y256 whole entry): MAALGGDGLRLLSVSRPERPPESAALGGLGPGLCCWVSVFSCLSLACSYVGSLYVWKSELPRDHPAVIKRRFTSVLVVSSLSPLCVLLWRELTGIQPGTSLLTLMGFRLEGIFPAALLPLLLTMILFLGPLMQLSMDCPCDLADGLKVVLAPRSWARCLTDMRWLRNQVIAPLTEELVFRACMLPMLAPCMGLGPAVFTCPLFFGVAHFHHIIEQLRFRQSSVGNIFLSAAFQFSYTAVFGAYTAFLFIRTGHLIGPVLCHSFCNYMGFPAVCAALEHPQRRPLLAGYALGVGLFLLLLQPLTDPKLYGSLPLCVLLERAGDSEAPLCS

Trypsin = Trypsin (Sus scrofa, UniProt P00761); experiment: porcine trypsin inhibitors, dose response, selectivity assay for Rce1 protease inhibitor project, biochemical, quenched peptide fluorescence, cherry-pick (AID 488789)
Vero = experiment: cells; type: functional; conditions: Chlorocebus sabaeus
[3] = target: T3, Microphthalmia-associated transcription factor (Homo sapiens, UniProt O75030); experiment: TRPM1 promoter luciferase signal decrease, dose response, MITF inhibitor project, cell-based, SK-MEL-5, cherry-picked, set 3 (AID 493073); type: functional
T3 sequence (O75030 whole entry): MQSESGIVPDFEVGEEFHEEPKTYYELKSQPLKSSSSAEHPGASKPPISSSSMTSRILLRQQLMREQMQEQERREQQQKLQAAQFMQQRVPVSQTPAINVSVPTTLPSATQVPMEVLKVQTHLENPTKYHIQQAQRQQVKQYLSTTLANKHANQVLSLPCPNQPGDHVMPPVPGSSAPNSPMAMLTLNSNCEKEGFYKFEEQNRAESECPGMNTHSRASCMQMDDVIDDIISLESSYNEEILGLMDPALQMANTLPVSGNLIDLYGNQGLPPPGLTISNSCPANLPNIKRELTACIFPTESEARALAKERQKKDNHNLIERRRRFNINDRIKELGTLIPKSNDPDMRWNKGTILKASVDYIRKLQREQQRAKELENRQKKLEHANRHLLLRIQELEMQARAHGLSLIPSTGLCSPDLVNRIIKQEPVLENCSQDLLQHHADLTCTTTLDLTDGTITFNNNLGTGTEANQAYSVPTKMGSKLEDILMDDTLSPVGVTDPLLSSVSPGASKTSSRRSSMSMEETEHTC

Protein skinhead-1 = target: T4, Protein skinhead-1 (Caenorhabditis elegans, UniProt P34707); type: functional
T4 sequence (P34707 whole entry): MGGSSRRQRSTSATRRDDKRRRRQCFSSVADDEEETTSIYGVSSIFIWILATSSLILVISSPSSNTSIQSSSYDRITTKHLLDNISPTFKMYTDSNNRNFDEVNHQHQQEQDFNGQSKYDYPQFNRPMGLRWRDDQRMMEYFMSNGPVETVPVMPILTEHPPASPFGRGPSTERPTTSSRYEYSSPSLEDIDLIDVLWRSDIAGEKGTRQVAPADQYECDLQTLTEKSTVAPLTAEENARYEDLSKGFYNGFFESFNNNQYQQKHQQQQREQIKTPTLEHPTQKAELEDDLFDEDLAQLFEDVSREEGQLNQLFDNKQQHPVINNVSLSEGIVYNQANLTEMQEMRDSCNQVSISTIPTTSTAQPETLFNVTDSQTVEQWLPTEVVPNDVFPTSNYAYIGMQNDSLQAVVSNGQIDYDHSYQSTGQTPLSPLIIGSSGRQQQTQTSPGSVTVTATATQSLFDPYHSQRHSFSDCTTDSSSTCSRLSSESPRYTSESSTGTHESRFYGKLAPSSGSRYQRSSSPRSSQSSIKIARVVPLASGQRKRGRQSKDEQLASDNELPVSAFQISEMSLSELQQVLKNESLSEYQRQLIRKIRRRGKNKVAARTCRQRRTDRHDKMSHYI

Streptococcus = experiment: Group A Streptococcus viability loss, dose response, counter-screen for streptokinase expression inhibitor project, luminescence, BacTiterGlo (AID 1915); type: functional, organism-based;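 further: potency for reduction of bacterial viability or growth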
[4] = target: T5, Zinc finger protein mex-5 (Caenorhabditis elegans, UniProt Q9XUB2); experiment: MEX-5/TCR-2 RNA interaction inhibitors, dose response, biochemical, C. elegans, fluorescence polarization (AID 1960)
T5 sequence (Q9XUB2 whole entry): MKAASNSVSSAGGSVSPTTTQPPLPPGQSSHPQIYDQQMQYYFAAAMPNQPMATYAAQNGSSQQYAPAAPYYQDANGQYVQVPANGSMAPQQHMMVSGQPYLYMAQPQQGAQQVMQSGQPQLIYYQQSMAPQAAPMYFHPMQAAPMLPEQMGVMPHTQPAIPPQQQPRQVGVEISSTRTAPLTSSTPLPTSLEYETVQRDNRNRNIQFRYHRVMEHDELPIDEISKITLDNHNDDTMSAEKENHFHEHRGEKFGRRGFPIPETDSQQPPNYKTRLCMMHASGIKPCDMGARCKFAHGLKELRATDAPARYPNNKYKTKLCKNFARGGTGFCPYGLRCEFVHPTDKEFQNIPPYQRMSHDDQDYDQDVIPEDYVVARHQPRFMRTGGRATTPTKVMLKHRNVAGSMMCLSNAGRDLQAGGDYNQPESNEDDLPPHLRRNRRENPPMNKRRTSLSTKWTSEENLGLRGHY

HeLa = experiment: HeLa cell cytotoxicity, dose response, cytotoxicity control for MITF activator project, CellTiter-Glo luminescence, cherry-pick samples (AID 540259); type: functional, cell-based; conditions: Homo sapiens
[5] = tested on: Streptococcus sp. 'group A'; experiment: growth inhibition of control SK(-) GAS strain, dose response, counter-screen for streptokinase expression inhibitor project, luminescence, kanamycin, BacTiterGlo, confirmation (AID 1900); type: functional, organism-based
[6] = target: T6, RNA-binding protein pos-1 (Caenorhabditis elegans, UniProt G5EF15); experiment: inhibitors of POS-1/mex-3 RNA binding, dose response, biochemical, fluorescence polarization (AID 1964);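 further: purified POS-1 fused to maltose binding protein made in E. coli; potency of compounds blocking POS-1 binding to fluorescent RNA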
T6 sequence (G5EF15 whole entry): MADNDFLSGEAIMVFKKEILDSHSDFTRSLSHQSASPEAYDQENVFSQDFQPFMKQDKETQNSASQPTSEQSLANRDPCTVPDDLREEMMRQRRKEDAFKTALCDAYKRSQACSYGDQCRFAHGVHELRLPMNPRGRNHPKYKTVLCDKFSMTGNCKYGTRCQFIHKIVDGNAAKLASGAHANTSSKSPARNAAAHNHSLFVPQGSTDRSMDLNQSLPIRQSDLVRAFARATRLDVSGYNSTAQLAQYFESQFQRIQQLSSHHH

[7] = Shn3 3'UTR reporter inhibitors, dose response, cell-based, Clone20 osteoblasts, firefly luciferase, cherry-picked (AID 624132); type: functional;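 further: firefly luciferase luminescence from reporter carrying the Shn3 3'UTR in osteoblasts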
INS1 = experiment: beta cell apoptosis inhibitors, cytokine rescue, dose response, luminescence, retest (AID 449756); type: functional, cell-based; conditions: Rattus norvegicus;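 further: cell death triggered by IL-1 beta plus TNF-alpha plus IFN-gamma mixture; protective hits raise ATP signal compared with cytokine alone wells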
[8] = target: T7, Nucleotide-binding oligomerization domain-containing protein 2 (Homo sapiens, UniProt Q9HC29); experiment: NOD2 signaling inhibitors, cell-based, luminescence, uHTS, HEK293 (AID 1566); type: functional
HEK293 [9] = experiment: NOD1 signaling inhibitors, primary screen, cell-based, luminescence, uHTS (AID 1578); type: functional; conditions: Homo sapiens
HEK293 [10] = experiment: cells; conditions: Homo sapiens
HEK293 [11] = experiment: cells; type: functional, cell-based; conditions: Homo sapiens
HEK293 [12] = experiment: cells; type: functional, cell-based; conditions: Homo sapiens; remark: listed apart in the source
[13] = control 3'UTR Renilla luciferase suppression, dose response, counter-screen for Shn3 inhibitor project, cell-based, Clone20-Shn3RL, cherry-picked (AID 624133); type: functional
HEK293 [14] = experiment: NOD2 signaling inhibitors in MDP-stimulated cells, cell-based, uHTS, luminescence (AID 2001); type: functional; conditions: Homo sapiens
[15] = target: T7, Nucleotide-binding oligomerization domain-containing protein 2; experiment: PubChem AID 2334; type: functional
Tumor necrosis factor = Tumor necrosis factor (Homo sapiens, UniProt P01375); experiment: TNFa-triggered NF-kB activation inhibitors, SAR follow-up, cell-based, revised (AID 2337); type: functional
[16] = target: T8, Nucleotide-binding oligomerization domain-containing protein 1 (Homo sapiens, UniProt Q9Y239); experiment: NOD1 signaling inhibitors, SAR follow-up, revised (AID 2333); type: functional
T8 sequence (Q9Y239 whole entry): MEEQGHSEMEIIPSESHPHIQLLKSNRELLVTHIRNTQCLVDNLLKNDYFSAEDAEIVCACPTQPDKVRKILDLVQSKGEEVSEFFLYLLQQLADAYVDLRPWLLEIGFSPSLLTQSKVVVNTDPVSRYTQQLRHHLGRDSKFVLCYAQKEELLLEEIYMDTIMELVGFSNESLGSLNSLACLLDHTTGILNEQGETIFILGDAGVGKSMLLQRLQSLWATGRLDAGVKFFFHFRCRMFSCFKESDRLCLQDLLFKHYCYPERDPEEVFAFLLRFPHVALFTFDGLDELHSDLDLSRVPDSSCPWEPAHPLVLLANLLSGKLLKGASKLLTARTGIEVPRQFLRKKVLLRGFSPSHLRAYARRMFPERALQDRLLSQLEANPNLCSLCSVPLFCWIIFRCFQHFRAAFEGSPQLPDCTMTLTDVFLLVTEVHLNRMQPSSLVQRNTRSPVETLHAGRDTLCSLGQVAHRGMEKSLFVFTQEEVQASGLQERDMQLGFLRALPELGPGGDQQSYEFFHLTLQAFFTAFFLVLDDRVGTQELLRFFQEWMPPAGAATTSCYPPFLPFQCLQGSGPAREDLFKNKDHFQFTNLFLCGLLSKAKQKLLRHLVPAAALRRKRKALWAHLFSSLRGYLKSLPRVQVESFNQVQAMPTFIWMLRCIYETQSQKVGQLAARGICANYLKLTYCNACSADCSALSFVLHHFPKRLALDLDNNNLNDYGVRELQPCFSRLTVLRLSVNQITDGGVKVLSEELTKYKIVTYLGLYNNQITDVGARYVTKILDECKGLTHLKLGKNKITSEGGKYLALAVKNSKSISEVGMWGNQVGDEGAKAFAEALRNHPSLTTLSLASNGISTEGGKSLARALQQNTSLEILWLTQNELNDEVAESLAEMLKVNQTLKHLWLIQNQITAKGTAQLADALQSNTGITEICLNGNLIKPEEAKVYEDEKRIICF

HEK293 [17] = experiment: cells; type: functional, cell-based; conditions: Homo sapiens; remark: listed apart in the source
[18] = microbe, parasite or virus in culture; type: functional; conditions: Mycobacterium tuberculosis

T7 sequence (Q9HC29 whole entry, the tested form may be a part): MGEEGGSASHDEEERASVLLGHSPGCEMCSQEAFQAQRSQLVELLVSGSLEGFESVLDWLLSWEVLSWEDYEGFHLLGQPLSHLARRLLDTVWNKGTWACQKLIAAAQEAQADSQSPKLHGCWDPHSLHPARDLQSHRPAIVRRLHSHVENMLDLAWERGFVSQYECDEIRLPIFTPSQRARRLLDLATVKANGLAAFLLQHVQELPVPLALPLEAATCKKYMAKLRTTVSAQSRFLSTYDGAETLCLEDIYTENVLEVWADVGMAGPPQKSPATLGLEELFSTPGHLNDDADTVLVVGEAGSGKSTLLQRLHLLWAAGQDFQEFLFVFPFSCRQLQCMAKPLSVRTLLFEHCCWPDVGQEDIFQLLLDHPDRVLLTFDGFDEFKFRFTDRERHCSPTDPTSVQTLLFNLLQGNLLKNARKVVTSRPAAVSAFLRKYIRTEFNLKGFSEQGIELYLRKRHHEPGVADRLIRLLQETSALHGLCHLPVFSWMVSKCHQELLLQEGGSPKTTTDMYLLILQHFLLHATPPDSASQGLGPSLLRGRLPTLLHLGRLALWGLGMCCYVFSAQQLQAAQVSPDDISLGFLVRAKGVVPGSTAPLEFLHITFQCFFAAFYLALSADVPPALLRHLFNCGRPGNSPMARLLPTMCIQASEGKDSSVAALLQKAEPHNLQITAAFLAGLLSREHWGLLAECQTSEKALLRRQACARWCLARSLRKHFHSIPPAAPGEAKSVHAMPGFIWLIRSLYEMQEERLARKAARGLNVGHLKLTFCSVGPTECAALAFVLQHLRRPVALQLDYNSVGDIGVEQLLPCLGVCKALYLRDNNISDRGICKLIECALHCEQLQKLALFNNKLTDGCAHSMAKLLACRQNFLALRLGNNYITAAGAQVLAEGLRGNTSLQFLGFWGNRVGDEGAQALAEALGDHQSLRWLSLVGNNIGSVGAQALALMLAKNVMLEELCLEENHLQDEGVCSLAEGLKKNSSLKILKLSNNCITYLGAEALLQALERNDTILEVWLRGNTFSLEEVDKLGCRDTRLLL
Sequence of Tumor necrosis factor (P01375 whole entry, the tested form may be a part): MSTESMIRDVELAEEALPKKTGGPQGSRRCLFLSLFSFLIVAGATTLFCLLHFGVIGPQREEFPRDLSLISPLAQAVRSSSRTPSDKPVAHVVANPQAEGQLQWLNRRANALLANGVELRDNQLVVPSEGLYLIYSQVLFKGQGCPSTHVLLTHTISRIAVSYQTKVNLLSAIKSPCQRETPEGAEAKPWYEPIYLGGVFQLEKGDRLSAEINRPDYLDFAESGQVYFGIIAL
Sequence of Trypsin (P00761 whole entry): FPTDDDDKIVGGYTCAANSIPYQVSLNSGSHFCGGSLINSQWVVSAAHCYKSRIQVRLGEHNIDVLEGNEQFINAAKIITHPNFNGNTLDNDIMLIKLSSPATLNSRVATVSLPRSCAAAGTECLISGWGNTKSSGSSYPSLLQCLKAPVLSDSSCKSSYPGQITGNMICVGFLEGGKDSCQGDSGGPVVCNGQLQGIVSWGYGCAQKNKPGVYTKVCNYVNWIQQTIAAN

Q: Which AC50 (CAAX prenyl protease 2 [1]) does the source give for `CC(C)C(=O)Nc1c2c(nc3ccccc13)N(C)CC2` here?
A: 36.2 µM (active)

Q: What about the AC50 (CAAX prenyl protease 2 [2]) of the same molecule?
A: 24 µM (active)

Q: What about the AC50 (Trypsin) of the same molecule?
A: 12.8 µM (active)

Q: For `CCn1nnnc1SCC(=O)Nc1nc(C)c(C)s1`, which AC50 (CAAX prenyl protease 2 [2]) is on record?
A: 9.77 µM (active)

Q: Which results are given for `O=C(Nc1ccccc1N1CCN(C(=O)c2ccccc2)CC1)c1ccc([N+](=O)[O-])o1`?
A: CC50 (Vero): 21.6 µM (active); AC50 [3]: 11.4 µM (active)

Q: Which IC50 (Protein skinhead-1) does the source give for `O=C(Nc1ccc([N+](=O)[O-])cc1)c1ccccc1` here?
A: > 100 µM (inactive)

Q: What about the AC50 [3] of the same molecule?
A: 40.2 µM (active)

Q: With `COc1ccc(/C=C/c2ccc3c(Br)ccc(O)c3n2)cc1` as the molecule, how does the EC50 (Streptococcus) read?
A: 1.66 µM (active)

Q: And the EC50 [4]?
A: > 300 µM (not active)

Q: And the AC50 (HeLa)?
A: 35.9 µM (active)

Q: What about the EC50 [5] of the same molecule?
A: 0.923 µM (active)

Q: What about the EC50 [6] of the same molecule?
A: 117 µM (active)

Q: Which results are given for `CCOC(=O)c1c(C)[nH]c(C)c1C(=O)CSc1nc2ccccc2c(=O)n1-c1ccc(CC)cc1`?
A: AC50 [7]: 5.36 µM (active); AC50 (INS1): 5.33 µM (active); EC50 [8]: 5.86 µM (active); EC50 (HEK293 [9]): 6.9 µM (active); IC50 (HEK293 [10]): > 20 µM (inactive); IC50 (HEK293 [11]): 13.4 µM (active); IC50 (HEK293 [12]): > 20 µM (inactive); AC50 [13]: 6.48 µM (active); IC50 (HEK293 [14]): 7.12 µM (active); IC50 [15]: 12 µM (active); IC50 (Tumor necrosis factor): 11.1 µM (active); IC50 [16]: 15.2 µM (active); IC50 (HEK293 [17]): > 20 µM (inactive)

Q: Which results are given for `CCC(=O)N1CCc2cc(S(=O)(=O)N3CCN(c4ccc(Cl)cc4)CC3)ccc21`?
A: IC50 (HEK293 [10]): > 20 µM (inactive); IC50 [15]: > 20 µM (inactive); IC50 (Tumor necrosis factor): > 20 µM (inactive); IC50 [16]: > 20 µM (inactive)

Q: With `CC(=O)N1CCc2cc(S(=O)(=O)N3CCN(c4ccc(C#N)cc4)CC3)ccc21` as the molecule, how does the IC50 (HEK293 [10]) read?
A: > 20 µM (inactive)

Q: What about the IC50 [15] of the same molecule?
A: 9.24 µM (active)

Q: And the IC50 (Tumor necrosis factor)?
A: 8.79 µM (active)

Q: And the IC50 [16]?
A: 5.87 µM (active)

Q: With `CC(C)c1ccc2nc(N)sc2c1` as the molecule, how does the CC50 [18] read?
A: > 40 µM (active)

Q: And the AC50 (HeLa)?
A: 54.4 µM (active)

— ChEMBL document CHEMBL1201862, “PubChem BioAssay data set” (2004)
